Measured values as given in PubChem BioAssay AID1963435 (Molecular Pharmacology Branch, DTP, NCI, 2024).
pIC50: −log10 of the molar value. Each block holds one compound with its values, some of them ahead of it.

System: PANC-1 complex spheroid growth, percent test/control
Test: Anticancer human tumor PANC-1 cell line growth inhibition [Asc];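 note: spheroids exposed to agents for 7 days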;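 for viability, T/C: percent viability relative to DMSO vehicle wells taken as 100%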
Conditions: for pIC50: curve of first compound; for viability, T/C: stronger effect = lower value
Procedure, shortened: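 Concentration series start at each agent's clinical Cmax, or at 10 microM when none is established, and drop in half-log steps; agents are applied alone or together to complex spheroids built with HUVEC and hMSC.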

[1] = second compound 0.0316 µM, first compound 0.00316 µM
[2] = second compound 0.0316 µM, first compound 0.01 µM
[3] = second compound 0.0316 µM, first compound 0.0316 µM
[4] = second compound 0.0316 µM, first compound 0.1 µM
[5] = second compound 0.1 µM, first compound 0.00316 µM
[6] = second compound 0.1 µM, first compound 0.01 µM
[7] = second compound 0.1 µM, first compound 0.0316 µM
[8] = second compound 0.1 µM, first compound 0.1 µM
[9] = second compound 0.316 µM, first compound 0.00316 µM
[10] = second compound 0.316 µM, first compound 0.01 µM
[11] = second compound 0.316 µM, first compound 0.0316 µM
[12] = second compound 0.316 µM, first compound 0.1 µM
[13] = second compound 1 µM, first compound 0.00316 µM
[14] = second compound 1 µM, first compound 0.01 µM
[15] = second compound 1 µM, first compound 0.0316 µM
[16] = second compound 1 µM, first compound 0.1 µM
[17] = second compound 3.16 µM, first compound 0.00316 µM
[18] = second compound 3.16 µM, first compound 0.01 µM
[19] = second compound 3.16 µM, first compound 0.0316 µM
[20] = second compound 3.16 µM, first compound 0.1 µM
[21] = second compound 10 µM, first compound 0.00316 µM
[22] = second compound 10 µM, first compound 0.01 µM
[23] = second compound 10 µM, first compound 0.0316 µM
[24] = second compound 10 µM, first compound 0.1 µM
[25] = second compound 0.0316 µM, first compound 0.316 µM
[26] = second compound 0.0316 µM, first compound 1 µM
[27] = second compound 0.1 µM, first compound 0.316 µM
[28] = second compound 0.1 µM, first compound 1 µM
[29] = second compound 0.316 µM, first compound 0.316 µM
[30] = second compound 0.316 µM, first compound 1 µM
[31] = second compound 1 µM, first compound 0.316 µM
[32] = second compound 1 µM, first compound 1 µM

pIC50 (second compound 0.0316 µM): < 7.00
pIC50 (second compound 0.1 µM): < 7.00
pIC50 (second compound 0.316 µM): < 7.00
pIC50 (second compound 1 µM): < 7.00
pIC50 (second compound 3.16 µM): < 7.00
pIC50 (second compound 10 µM): < 7.00
SMILES: NC1CCC(NC2CC2c2ccccc2)CC1 (stereo unspecified) + Cc1c(S(C)(=O)=O)c(-c2cc(F)cc(N3CCN(c4ccc(NS(=O)(=O)c5ccc(NC(CCN6CCC(C(=O)OCCCP(=O)(O)O)CC6)CSc6ccccc6)c(S(=O)(=O)C(F)(F)F)c5)cc4)CC3)c2)c(-c2ccc(Cl)cc2)n1C(C)C
viability, T/C (second compound 0.0316 µM, first compound 0.000316 µM): 109%
viability, T/C (second compound 0.0316 µM, first compound 0.001 µM): 101%
viability, T/C [1]: 98.1%
viability, T/C [2]: 91.4%
viability, T/C [3]: 95.1%
viability, T/C [4]: 100%
viability, T/C (second compound 0.1 µM, first compound 0.000316 µM): 109%
viability, T/C (second compound 0.1 µM, first compound 0.001 µM): 98.3%
viability, T/C [5]: 101%
viability, T/C [6]: 107%
viability, T/C [7]: 98%
viability, T/C [8]: 115%
viability, T/C (second compound 0.316 µM, first compound 0.000316 µM): 108%
viability, T/C (second compound 0.316 µM, first compound 0.001 µM): 97.1%
viability, T/C [9]: 97.5%
viability, T/C [10]: 98.5%
viability, T/C [11]: 110%
viability, T/C [12]: 105%
viability, T/C (second compound 1 µM, first compound 0.000316 µM): 104%
viability, T/C (second compound 1 µM, first compound 0.001 µM): 109%
viability, T/C [13]: 121%
viability, T/C [14]: 92%
viability, T/C [15]: 112%
viability, T/C [16]: 107%
viability, T/C (second compound 3.16 µM, first compound 0.000316 µM): 114%
viability, T/C (second compound 3.16 µM, first compound 0.001 µM): 110%
viability, T/C [17]: 102%
viability, T/C [18]: 108%
viability, T/C [19]: 109%
viability, T/C [20]: 110%
viability, T/C (second compound 10 µM, first compound 0.000316 µM): 168%
viability, T/C (second compound 10 µM, first compound 0.001 µM): 206%
viability, T/C [21]: 176%
viability, T/C [22]: 177%
viability, T/C [23]: 174%
viability, T/C [24]: 168%

pIC50 (second compound 0.00316 µM): 6.54
pIC50 (second compound 0.01 µM): 6.65
pIC50 (second compound 0.0316 µM): 6.70
pIC50 (second compound 0.1 µM): 6.80
pIC50 (second compound 0.316 µM): 6.80
pIC50 (second compound 1 µM): 6.72
SMILES: COc1c(OCCCN2CCOCC2)ccc2c3n(c(=NC(=O)c4cnc(N)nc4)nc12)CCN3 + CNC(C)C(=O)NC1CN(S(=O)(=O)c2cccc(S(=O)(=O)N3CCC4CCC(C(=O)NC(c5ccccc5)c5ccccc5)N4C(=O)C(NC(=O)C(C)NC)C3)c2)CCC2CCC(C(=O)NC(c3ccccc3)c3ccccc3)N2C1=O
viability, T/C (second compound 0.00316 µM, first compound 0.00316 µM): 107%
viability, T/C (second compound 0.00316 µM, first compound 0.01 µM): 92.4%
viability, T/C (second compound 0.00316 µM, first compound 0.0316 µM): 87.6%
viability, T/C (second compound 0.00316 µM, first compound 0.1 µM): 74.8%
viability, T/C (second compound 0.00316 µM, first compound 0.316 µM): 45.6%
viability, T/C (second compound 0.00316 µM, first compound 1 µM): 18.7%
viability, T/C (second compound 0.01 µM, first compound 0.00316 µM): 96.1%
viability, T/C (second compound 0.01 µM, first compound 0.01 µM): 95.5%
viability, T/C (second compound 0.01 µM, first compound 0.0316 µM): 94.2%
viability, T/C (second compound 0.01 µM, first compound 0.1 µM): 65.7%
viability, T/C (second compound 0.01 µM, first compound 0.316 µM): 44%
viability, T/C (second compound 0.01 µM, first compound 1 µM): 15.6%
viability, T/C [1]: 95.2%
viability, T/C [2]: 99.1%
viability, T/C [3]: 89.9%
viability, T/C [4]: 62.8%
viability, T/C [25]: 41.3%
viability, T/C [26]: 13.2%
viability, T/C [5]: 103%
viability, T/C [6]: 90.7%
viability, T/C [7]: 82.1%
viability, T/C [8]: 56.6%
viability, T/C [27]: 36.8%
viability, T/C [28]: 12.3%
viability, T/C [9]: 98.7%
viability, T/C [10]: 91.7%
viability, T/C [11]: 85.2%
viability, T/C [12]: 56.9%
viability, T/C [29]: 36.8%
viability, T/C [30]: 14.6%
viability, T/C [13]: 86.9%
viability, T/C [14]: 96.9%
viability, T/C [15]: 83.1%
viability, T/C [16]: 66.4%
viability, T/C [31]: 37.4%
viability, T/C [32]: 15.5%

pIC50 (second compound 0.0316 µM): < 6.00
pIC50 (second compound 0.1 µM): < 6.00
pIC50 (second compound 0.316 µM): < 6.00
pIC50 (second compound 1 µM): < 6.00
pIC50 (second compound 3.16 µM): < 6.00
pIC50 (second compound 10 µM): < 6.00
SMILES: CCN1CCN(Cc2ccc(Nc3ncc(F)c(-c4cc(F)c5nc(C)n(C(C)C)c5c4)n3)nc2)CC1 + Cc1c(S(C)(=O)=O)c(-c2cc(F)cc(N3CCN(c4ccc(NS(=O)(=O)c5ccc(NC(CCN6CCC(C(=O)OCCCP(=O)(O)O)CC6)CSc6ccccc6)c(S(=O)(=O)C(F)(F)F)c5)cc4)CC3)c2)c(-c2ccc(Cl)cc2)n1C(C)C
viability, T/C [1]: 93.5%
viability, T/C [2]: 108%
viability, T/C [3]: 102%
viability, T/C [4]: 121%
viability, T/C [25]: 124%
viability, T/C [26]: 129%
viability, T/C [5]: 96%
viability, T/C [6]: 100%
viability, T/C [7]: 99.5%
viability, T/C [8]: 115%
viability, T/C [27]: 121%
viability, T/C [28]: 137%
viability, T/C [9]: 105%
viability, T/C [10]: 116%
viability, T/C [11]: 108%
viability, T/C [12]: 103%
viability, T/C [29]: 123%
viability, T/C [30]: 127%
viability, T/C [13]: 104%
viability, T/C [14]: 101%
viability, T/C [15]: 115%
viability, T/C [16]: 126%
viability, T/C [31]: 115%
viability, T/C [32]: 125%
viability, T/C [17]: 110%
viability, T/C [18]: 104%
viability, T/C [19]: 102%
viability, T/C [20]: 120%
viability, T/C (second compound 3.16 µM, first compound 0.316 µM): 123%
viability, T/C (second compound 3.16 µM, first compound 1 µM): 125%
viability, T/C [21]: 171%
viability, T/C [22]: 188%
viability, T/C [23]: 174%
viability, T/C [24]: 175%
viability, T/C (second compound 10 µM, first compound 0.316 µM): 168%
viability, T/C (second compound 10 µM, first compound 1 µM): 140%
